Data as given in US10537552B2, “Substituted 5-hydroxyoxindoles and their use as analgesics and fever reducers” (CARAFE DRUG INNOVATION, LLC, priority 2015, dated 2020).

What was measured:
[1] = test system: acetic acid-induced behavioral response; assay: abdominal constriction response test (acetic acid), Example 9; format: in vivo; conditions: B6C3F1 mice, FIG. 1; for inhibition of acetic acid-induced behavioral response: p.o. 30 min before i.p. 0.9% acetic acid, DMSO/2% methylcellulose, acetaminophen 75 to 300 mg/kg
Procedure: The example was performed to compare the antinociception (animal equivalent of analgesia) produced by the oral administration of 5-hydroxyoxindole vs acetaminophen in a standard model in mice. Male B6C3F1 mice (Taconic), 8-10 weeks of age were utilized. The mice were received at the facility at least one week prior to testing and housed in standard polycarbonate cages with filter tops. The experiments were done in accordance with the guidelines of the National Institutes of Health (NIH) and with the guidelines of the Committee for Research and Ethical Issues of the IASP (International Association for the Study of Pain) and were approved by the Institutional Animal Care and Use Committee (IACUC) of Taconic Laboratories. Four or five animals were housed per cage and food and water were provided ad libitum. Prior to initiation of the study, the mice were examined to assure adequate health and suitability. They were maintained on a 12 h/12 h light/dark cycle and room temperature was maintained between 20 and 23° C. with a relative humidity maintained between 30 and 70%. All compounds were tested in naïve animals. All compounds were administered orally 10 mL/kg, with a 30 minute pretreatment time. Each compound was dissolved in DMSO as a stock solution and mixed with methylcellulose (2%) before testing. Each compound was initially tested in five mice at a dose of 300 mg/kg in the abdominal constriction response test (Collier, British Journal of Pharmacology and Chemotherapy 32(2): 295-310, 1968). Based upon the results of the initial test, the dose-response relationship for each active compound was determined by measuring the level of analgesia produced by at least 3 escalating doses of the test compound. […] Vehicle or test compound was administered p.o. (per os) 30 min prior to an intraperitoneal (i.p.) injection of 0.9% acetic acid (10 mL/kg) and the number of responses (stretching of the hind limbs accompanied by a contraction of the abdominal muscles) to the acetic acid injection were counted over the subsequent 30 min period. […]

[2] = test system: acetic acid-induced writhing responses; assay: acetic acid writhing test (abdominal irritant test), Example 10; format: in vivo, C57/B16 mice; conditions: C57/B16 mice
Procedure: This example compares the antinociception (animal equivalent of analgesia) produced by the oral administration of 5-hydroxy-7-methyloxindole vs. acetaminophen. Initial studies were performed using 10% DMSO/Cremophor™ as the vehicle. To enable a comparison with other datasets, 5-hydroxy-7-methyloxindole was subsequently tested using 6% Tween 20® reagent as the vehicle.
Male C57/B16 mice (Taconic), 8 weeks of age, were used in this study. The mice were received at Drexel University at least one week prior to testing and housed in standard polycarbonate cages with filter tops. Experiments were done in accordance with the guidelines of the National Institutes of Health and with the guidelines of the Committee for Research and Ethical Issues of IASP and were approved by the Animal Care and Use Committee of Drexel University College of Medicine. Four to five animals were housed per cage and food and water were provided ad libitum. Prior to initiation of the study, the animals were examined to assure adequate health and suitability. Mice were maintained on a 12/12 light/dark cycle and room temperature was maintained between 20 and 23° C. with a relative humidity maintained between 30% and 70%.
Compounds were administered orally 10 mL/kg, with a 30 minute pretreatment time. All compounds were tested in naïve animals. Each compound was dissolved in DMSO as a stock solution and mixed with Cremophor™ (1:1 v/v) before testing. The mixed solutions were diluted 1:4 with sterile water (the final concentration of DMSO/Cremophor™ reagent was 10%) immediately before administration to maximize the amount of compound in solution and improve the uniformity of any compound substance remaining in suspension. It is possible that some of the drug was in suspension at the time of administration. Each compound was initially tested in 5 mice at a dose of 300 mg/kg in the writhing test to assess their ability to alleviate abdominal pain. Based on the results of the initial test, the dose-response relationship for each active compound was determined by measuring the level of analgesia produced by at least 3 escalating doses of the test compound. The measurement of inhibition of writhing for acetaminophen and 5-hydroxy-7-methyloxindole were repeated using 6% Tween® 20 reagent as the vehicle. In this case, both compounds were clearly in suspension when administered to the animals.
A modified version of the standard abdominal irritant test was used to assess analgesia. Mice were habituated for 1 h in a transparent test box (5×5×10 inches) before any injections. Vehicle or test compound was administered p.o. (per os) 30 min prior to an intraperitoneal (i.p.) injection of 0.6% acetic acid (10 mL/kg) and the number of writhing responses (stretching of the hind limbs accompanied by a contraction of the abdominal muscles) to the acetic acid injection were counted over the subsequent 30 min period. The mice from each cage were randomly assigned to the dosing groups and the mice from each group were injected in a random order.
The one-way ANOVA was used to determine significant difference from the vehicle control treated animal. Dose response data for 5-hydroxy-7-methyloxindole was fit by non-linear regression analysis to a logit model to provide an estimate of ED50.

[3] = test system: liver (acute liver toxicity); assay: liver histology (pathohistological examination); format: in vivo, C57BL/6 mice; conditions: mouse, in vivo
Procedure: In all experiments, mice were fasted overnight and then allocated randomly to receive either acetaminophen or equimolar dose of 5-hydroxy-7-methyloxindole by the intragastric route. Food was returned 4 h after the treatment. The two experimental groups were:
(a) Lower-dose group: Mice were administered acetaminophen (300 mg/kg) or 5-hydroxy-7-methyloxindole (324 mg/kg). After 7 h, the mice were sacrificed and liver and blood samples were taken for the analysis.
Seven hours after receiving the second injection, mice were sacrificed and liver and blood samples were taken for analysis.
A portion of the liver lobes of each mouse was fixed in 4% buffered paraformaldehyde, dehydrated in increasing concentrations of ethanol, and embedded in paraffin. Then, sections of tissue were cut to […] thickness using a rotary microtome, stained with hematoxylin and eosin, and then analyzed under a microscope.

Row | SMILES | inhibition of acetic acid-induced behavioral response [1] | inhibition of acetic acid-induced response (writhing) ([2]; p.o. 30 min before i.p. 0.6% acetic acid, 10% DMSO/Cremophor vehicle, 30 to 300 mg/kg, FIG. 2, 3) | inhibition of acetic acid-induced response (writhing) ([2]; p.o., 6% Tween 20 vehicle (suspension), 100 and 300 mg/kg, FIG. 5, 6) | liver injury on pathohistological examination [3] | dose needed for same analgesic efficacy as acetaminophen ([1]; p.o.)
1 | CC(=O)Nc1ccc(O)cc1 [acetaminophen, N-(4-Hydroxyphenyl)acetamide, reference compound] | robust and dose-related inhibition | robust and dose-related inhibition | Only a 300 mg/kg dose produced significant inhibition | acute liver injury in all of the mice | –
2 | O=C1Cc2cc(O)ccc2N1 [Example 5-HI, 5-hydroxyoxindole] | statistically significant, dose-related inhibition | – | – | – | higher doses of 5-HI were required
